Test results taken from patent US20250034135A1, “ANTI-APOPTOTIC PROTEIN BCL-2 INHIBITOR, PHARMACEUTICAL COMPOSITION AND USES THEREOF” (HANGZHOU HEALZEN THERAPEUTICS CO., LTD., priority 2021, published 2025).

What follows are compounds tested against BCL2 (Homo sapiens (Human), UniProt P10415) (assay: Molecular level activity test of anti-apoptotic protein BCL2 (HTRF, binding to Bim peptide)). Details: HTRF, binding of BCL2 to Bim peptide; read-out: BCL2 nM (inhibitory activity, IC50).
In short: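 Signal comes from proximity of anti-His-labelled BCL2 and streptavidin-XL665-bound biotin-BIM peptide. Test compounds, added in 2% DMSO, were preincubated with protein and peptide for one hour; detection reagents then incubated four hours at room temperature before reading.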

BCL2, sequence (P10415 whole entry): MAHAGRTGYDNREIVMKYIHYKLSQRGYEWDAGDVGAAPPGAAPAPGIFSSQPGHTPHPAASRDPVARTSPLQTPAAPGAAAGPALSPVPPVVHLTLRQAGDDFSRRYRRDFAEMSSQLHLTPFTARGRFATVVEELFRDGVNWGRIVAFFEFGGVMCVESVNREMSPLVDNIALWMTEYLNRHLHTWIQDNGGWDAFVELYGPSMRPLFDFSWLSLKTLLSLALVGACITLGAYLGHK

IC50, < 10 nM:
COc1ccc(CN2CCN(C3CC4(CCN(c5cc(Oc6cnc7[nH]ccc7c6)c(C(=O)NS(=O)(=O)c6cc([N+](=O)[O-])c(NC[C@H]7CC[C@](C)(O)CC7)c7ocnc67)cn5)CC4)C3)[C@H](c3ccccc3C(C)C)C2)cc1 [compound 138, 4-((1H-pyrrolo[2,3-b]pyrid-5-yl)oxy)-N-((7-((((1r, 4r)-4-hydroxy-4-methylcyclohexyl)methyl)amino)-6-nitrobenzo[d]oxazol-4-yl)sulfonyl)-6-(2-((R)-2-(2-isopropylphenyl)-4-(4-methoxybenzyl)piperazin-1-yl)-7-azaspiro[3.5]non-7-yl) nicotinamide]
CC(C)c1ccccc1[C@@H]1CCCN1C1CC2(CCN(c3ccc(C(=O)NS(=O)(=O)c4cc([N+](=O)[O-])c(NC[C@H]5CC[C@](C)(O)CC5)c5[nH]ccc45)c(Oc4cnc5[nH]ccc5c4)c3)CC2)C1 [compound 009, 2-((1H-pyrrolo[2,3-b]pyrid-5-yl)oxy)-N-((7-((((1r,4r)-4-hydroxy-4-methylcyclohexyl)methyl)amino)-6-nitro-1H-indol-4-yl)sulfonyl)-4-(2-((S)-2-(2-isopropylphenyl)pyrrolidin-1-yl)-7-azaspiro[3.5]non-7-yl)benzamide]
COc1ccc(CN2CCN(C3CC4(C3)CN(c3cc(Oc5cnc6[nH]ccc6c5)c(C(=O)NS(=O)(=O)c5ccc(NC[C@H]6CC[C@](C)(O)CC6)c([N+](=O)[O-])c5)cc3F)C4)C(c3ccccc3C(C)C)C2)cc1 (stereo partly shown) [compound 056, 2-((1H-pyrrolo[2,3-b]pyrid-5-yl)oxy)-5-fluoro-N-((4-((((1r,4r)-4-hydroxy-4-methylcyclohexyl)methyl)amino)-3-nitrophenyl)sulfonyl)-4-(6-(2-(2-isopropylphenyl)-4-(4-methoxybenzyl)piperazin-1-yl)-2-azaspiro[3.3]hept-2-yl)benzamide]
COc1ccc(CN2CCN(C3CC4(CCN(c5cc(Oc6cnc7[nH]ccc7c6)c(C(=O)NS(=O)(=O)c6ccc(NCC7(F)CCOCC7)c([N+](=O)[O-])c6)cn5)CC4)C3)C(c3ccccc3C(C)C)C2)cc1 (stereo not shown) [compound 065, 4-((1H-pyrrolo[2,3-b]pyrid-5-yl)oxy)-N-((4-(((4-fluorotetrahydro-2H-pyran-4-yl)methyl)amino)-3-nitrophenyl)sulfonyl)-6-(2-(2-(2-isopropylphenyl)-4-(4-methoxybenzyl)piperazin-1-yl)-7-azaspiro[3.5]non-7-yl) nicotinamide]
CC(C)c1ccccc1[C@@H]1CN(Cc2ccc(NS(C)(=O)=O)cc2)CCN1C1CC2(CCN(c3cc(Oc4cnc5[nH]ccc5c4)c(C(=O)NS(=O)(=O)c4ccc(NCC5(F)CCOCC5)c([N+](=O)[O-])c4)cc3F)CC2)C1 [compound 201, (R)-2-((1H-pyrrolo[2,3-b]pyrid-5-yl)oxy)-5-fluoro-N-((4-(((4-fluorotetrahydro-2H-pyran-4-yl)methyl)amino)-3-nitrophenyl)sulfonyl)-4-(2-(2-(2-isopropylphenyl)-4-(4-(methylsulfonylamino)benzyl)piperazin-1-yl)-7-azaspiro[3.5]non-7-yl)benzamide]
COc1ccc(CN2CCN(C3CC4(CCN(c5cc(Oc6cnc7[nH]ccc7c6)c(C(=O)NS(=O)(=O)c6cc([N+](=O)[O-])c(NCC7(F)CCOCC7)c7[nH]cnc67)cn5)CC4)C3)C(c3ccccc3C(C)C)C2)cc1 (stereo not shown) [compound 077, 4-((1H-pyrrolo[2,3-b]pyrid-5-yl)oxy)-N-((7-(((4-fluorotetrahydro-2H-pyran-4-yl)methyl)amino)-6-nitro-1H-benzo[d]imidazol-4-yl)sulfonyl)-6-(2-(2-(2-isopropylphenyl)-4-(4-methoxybenzyl)piperazin-1-yl)-7-azaspiro[3.5]non-7-yl) nicotinamide]
COc1ccc(CN2CCN(C3CC4(CCN(c5ccc(C(=O)NS(=O)(=O)c6cc([N+](=O)[O-])c(NCC7(F)CCOCC7)c7c6OCCO7)c(Oc6cnc7[nH]ccc7c6)c5)CC4)C3)[C@H](c3ccccc3C(C)C)C2)cc1 [compound 181]
CC(C)c1ccccc1[C@@H]1CN(Cc2ccncc2)CCN1C1CC2(CCN(c3cc(Oc4cnc5[nH]ccc5c4)c(C(=O)NS(=O)(=O)c4ccc(NCC5(F)CCOCC5)c([N+](=O)[O-])c4)cc3F)CC2)C1 [compound 211, (R)-2-((1H-pyrrolo[2,3-b]pyrid-5-yl)oxy)-5-fluoro-N-((4-(((4-fluorotetrahydro-2H-pyran-4-yl)methyl)amino)-3-nitrophenyl)sulfonyl)-4-(2-(2-(2-isopropylphenyl)-4-(pyrid-4-ylmethyl)piperazin-1-yl)-7-azaspiro[3.5]non-7-yl)benzamide]
CC(C)c1ccccc1[C@@H]1CCCN1C1CC2(CCN(c3cc(Oc4cnc5[nH]ccc5c4)c(C(=O)NS(=O)(=O)c4cc([N+](=O)[O-])c(NC[C@H]5CC[C@](C)(O)CC5)c5c4ncn5C)cn3)CC2)C1 [compound 035, 4-((1H-pyrrolo[2,3-b]pyrid-5-yl)oxy)-N-((7-((((1r,4r)-4-hydroxy-4-methylcyclohexyl)methyl)amino)-1-methyl-6-nitro-1H-benzo[d]imidazol-4-yl)sulfonyl)-6-(2-((S)-2-(2-isopropylphenyl)pyrrolidin-1-yl)-7-azaspiro[3.5]non-7-yl) nicotinamide]
COc1ccc(CN2CCN(C3CC4(CCN(c5cc(Oc6cnc7[nH]ccc7c6)c(C(=O)NS(=O)(=O)c6cc([N+](=O)[O-])c(NCC7(F)CCOCC7)c7c6OCCO7)cn5)CC4)C3)[C@H](c3ccccc3C(C)C)C2)cc1 [compound 136, (R)-4-((1H-pyrrolo[2,3-b]pyrid-5-yl)oxy)-N-((8-(((4-fluorotetrahydro-2H-pyran-4-yl)methyl)amino)-7-nitro-2,3-dihydrobenzo[b][1,4]dioxan-5-yl)sulfonyl)-6-(2-(2-(2-isopropylphenyl)-4-(4-methoxybenzyl)piperazin-1-yl)-7-azaspiro[3.5]non-7-yl) nicotinamide]
CC(C)c1ccccc1[C@@H]1CCCN1C1CC2(CCN(c3cc(Oc4cnc5[nH]ccc5c4)c(C(=O)NS(=O)(=O)c4cc([N+](=O)[O-])c(NC[C@H]5C[C@@](C)(O)C5)c5[nH]cnc45)cn3)CC2)C1 [compound 017, 4-((1H-pyrrolo[2,3-b]pyrid-5-yl)oxy)-N-((7-((((1S,3S)-3-hydroxy-3-methylcyclobutyl)methyl)amino)-6-nitro-1H-benzo[d]imidazol-4-yl)sulfonyl)-6-(2-((S)-2-(2-isopropylphenyl)pyrrolidin-1-yl)-7-azaspiro[3.5]non-7-yl) nicotinamide]
CC(C)c1ccccc1[C@@H]1CCCN1C1CC2(CCN(c3cc(Oc4cnc5[nH]ccc5c4)c(C(=O)NS(=O)(=O)c4cc([N+](=O)[O-])c(NCC5(F)CCOCC5)c5occc45)cc3F)CC2)C1 [compound 102, (S)-2-((1H-pyrrolo[2,3-b]pyrid-5-yl)oxy)-5-fluoro-N-((7-(((4-fluorotetrahydro-2H-pyran-4-yl)methyl)amino)-6-nitrobenzofuran-4-yl)sulfonyl)-4-(2-(2-(2-isopropylphenyl)pyrrolidin-1-yl)-7-azaspiro[3.5]non-7-yl)benzamide]
CC(C)c1ccccc1[C@@H]1CCCN1C1CC2(CCN(c3cc(Oc4cnc5[nH]ccc5c4)c(C(=O)NS(=O)(=O)c4cc([N+](=O)[O-])c(NCC5(F)CCN(CC(C)(C)C)CC5)c5[nH]cnc45)cc3F)CC2)C1 [compound 026]
